In patent US20030027856A1, “Tolterodine metabolites” (priority 2001, published 2003):

Test system: muscarinic receptors
Test: Functional characterization of antimuscarinic activities on smooth muscle strips
Set-up: species or system guinea pig
Conditions: pharmacological studies in comparison with tolterodine
Description: Experiments are performed using methods similar to those described by Kachur et al, 1988 (R and S enantiomers of oxybutynin: Pharmacological effects in guinea pig bladder and intestine. J Pharmacol Exp Ther 247: 867-872) and Noronha-Blob and Kachur, 1991 (Enantiomers of Oxybutynin: In vitro pharmacological characterization at M1, M2 and M3 muscarinic receptors and in vivo effects on urinary bladder contraction, mydriasis and salivary secretion in guinea pigs. J Pharmacol Exp Ther 256: 562-567). Strips of tissue (approximately 10 mm long and 1.5 mm wide) are removed from the body of the urinary bladder of male guinea pigs weighing 400-600 g. […] Contractions are recorded with transducers on a polygraph.
The present series of experiments focuses on the anticholinergic actions of DES-TOLT, and RS-DES-TOLT and their metabolites. In these experiments, in order to assess the viability of each tissue and to serve as a frame of reference, contractions of each strip of tissue are recorded initially in response to exposure to tissue medium in which NaCl is replaced by KCl to yield a concentration of 137.7 mM KCl in the medium. This is followed by return to the standard medium, and then by exposures to progressively in creasing concentrations of carbachol, with separate exposures to each concentration only until the peak response has been recorded. […]
In the case of `CC(C)NCC[C@H](c1ccccc1)c1cc(CO)ccc1O` [5-HM-DES-TOLT, R(+)-N-Isopropyl-3-(2-hydroxy-5-(hydroxymethyl)phenyl)-3-phenylpropylamine], the antimuscarinic activities is reported as “potent antimuscarinic activities”. For `Cc1ccc(O)c([C@H](CCNC(C)C)c2ccccc2)c1` [DES-TOLT, R(+)-N-isopropyl-3-(2-hydroxy-5-methylphenyl)-3-phenylpropylamine], the antimuscarinic activities was “potent antimuscarinic activities”.

Test system: not listed separately
Test: Cardiac side effects: QTc interval of the EKG in anesthetized guinea pigs
Type: in vivo
Conditions: guinea pig, intravenous infusion over 30 min
Description: Male guinea pigs (450-600 g) are anesthetized with freshly prepared dialurethane sodium. The jugular vein is catheterized for iv administration of test drugs and the trachea is exposed and cannulated. Subdermal electrodes are positioned for Lead II electrocardiogram recording, monitored on a Grass Polygraph recorder, set at a paper speed of 50 mm/sec. The animals are allowed to stabilize for 30 minute after completion of surgery, and three baseline EKG recordings are then made at 10-minute intervals. The animals are then given a dose of the test compound or vehicle as an intravenous infusion over 30 min. EKG recordings are used to determine QT intervals and heart rates. To compensate for variations in heart rates, QTc intervals are calculated from QT- and RR-intervals as known to those skilled in the art. Prolongation of QTc is indicative of a prolonged action potential, caused by an inhibition of the delayed rectifier potassium channel. Prolongation of QTc is the known cause of Torsades de Pointes ventricular fibrillation by drugs such as terfenadine, astemizole and terodiline (now withdrawn from the market).
For `Cc1ccc(O)c(C(CCNC(C)C)c2ccccc2)c1` (centres unmarked) [RS-DES-TOLT, RS-N-Isopropyl-3-(2-hydroxy-5-methylphenyl)-3-phenylpropylamine], the “prolongation of the QTc-interval of the EKG” value was “did not cause a prolongation of the QTc interval”. In the case of `CC(C)N(CCC(c1ccccc1)c1cc(CO)ccc1O)C(C)C` (centres unmarked) [RS-5-HM, RS-N,N-diisopropyl-3-(2-hydroxy-5-(hydroxymethyl)phenyl)-3-phenylpropylamine], the “prolongation of the QTc-interval of the EKG” value is reported as “did not cause a prolongation of the QTc interval”. In the case of `Cc1ccc(O)c([C@H](CCN(C(C)C)C(C)C)c2ccccc2)c1` [TOLT, R(+)-N,N-diisopropyl-3-(2-hydroxy-5-methylphenyl)-3-phenylpropylamine], the “prolongation of the QTc-interval of the EKG” value is reported as “cause a prolongation of the QTc-interval”. With `CC(C)N(CC[C@H](c1ccccc1)c1cc(CO)ccc1O)C(C)C` [5-HM, R(+)-N,N-diisopropyl-3-(2-hydroxy-5-(hydroxymethyl)phenyl)-3-phenylpropylamine] the “prolongation of the QTc-interval of the EKG” value was “did not cause a prolongation of the QTc interval”. For `Cc1ccc(O)c([C@H](CCNC(C)C)c2ccccc2)c1` [DES-TOLT, R(+)-N-isopropyl-3-(2-hydroxy-5-methylphenyl)-3-phenylpropylamine], the “prolongation of the QTc-interval of the EKG” value was “did not cause a prolongation of the QTc interval”. In the case of `Cc1ccc(O)c(C(CCN(C(C)C)C(C)C)c2ccccc2)c1` (centres unmarked) [RS-TOLT, RS-N,N-diisopropyl-3-(2-hydroxy-5-methylphenyl)-3-phenylpropylamine, reference compound], the “prolongation of the QTc-interval of the EKG” value is reported as “cause a prolongation of the QTc-interval”.
